According to US6812028B1, “Embryogenesis and plant regeneration from microspores” (University of Guelph, priority 1999, dated 2004):

What was measured:
[1] = test system: barley microspores; assay: Embryo induction and regeneration following pretreatment of barley genotypes; assay type: cell-based; conditions: for % embryoid Regeneration: 500 embryos per plate; for Embryoids: average from 3 plates
Method: Embryogenesis from thirty different barley genotypes was conducted according to the procedure in accordance with the present invention. Between 10,000 to 15,000 embryos were usually produced per plate. Table 2 illustrates some counts of embryos based on an average of three replications (plates). Not all thirty genotypes were counted. However, response of each genotype was judged on the basis of the appearance of plates after two weeks and again after 4 to 5 weeks. Random samples of 500 embryos were taken from the counted plates and placed on regeneration media to estimate the embryo regeneration ability. […] FIG. 4 illustrates barley c.v. Igri embryo development at 3 weeks (FIG. 4(a)) and 5 weeks (FIG. 4(b)) on filter paper placed on solidified induction media.
Three different pre-treatments were compared within the genotype Igri and no apparent differences were observed relative to embryo induction or regeneration (Table 2). Lina normally responds well in microspore culture following a mannitol pre-treatment, but in this study using the combination of cold plus mannitol for 7 days, response was low. Thus, embryo formation was also counted in Lina when a 21 day cold pretreatment had been used and this response was more typical of Lina (Table 2). The regeneration response from the two pretreatment methods on Lina was similar. The frequency of fertile doubled haploids among the Lina progeny following the two pretreatments was not different, namely 79% after the combination 7-day treatment and 83% after the 21 day cold pretreatment.
Embryogenesis was visually assessed in barley winter genotypes; OAC Elmira, GBC776, GBC779, GBC780 and GBC781, and spring genotypes, Trinity, Cooper, Golden Promise, Disa, Morex, Excel, Elrose, Bruce, Rodeo, H936 and Sabarilis. […] Under these conditions about 2,000 plants per 10^5 microspores, or about 200 plants per spike on responsive genotypes has been observed.

[2] = test system: barley genotype Igri microspores; assay: Effect of duration of pretreatment on embryo formation; assay type: cell-based
Method: The effect of the duration of pre-treatment on embryogenesis from barley genotype Igri for spikes incubated with 0.3 mol/L mannitol at 4° C. Table 3 illustrates that as few as 4 days of pre-treatment drastically effects the number of embryos formed from microspores. Although the number formed increases up to 28 days of pre-treatment, only a 4 day period is required to achieve beneficial effects. […] However, duration of pre-treatment did appear to effect Oxbow as previously mentioned, and as illustrated in Table 2.

[3] = GBC 777, pretreatment 4 d 0.3M man. 4° C.
[4] = GBC 778, pretreatment 4 d 3.3M man. 4° C.
[5] = Harrington, pretreatment 3 d 0.3M man. 4° C.
[6] = Igri, pretreatment 4 d 0.3M man. 4° C.
[7] = Igri, pretreatment 4 d 0.3M man. 25° C.
[8] = Lina, pretreatment 7 d 0.3M man 4° C.
[9] = Manley, pretreatment 4 d 0.3M man. 4° C.
[10] = Oxbow, pretreatment 21 d 0.3M man. 4° C.
[11] = cold plus mannitol pre-treatment 3 to 4 days, 0.3 mol/liter mannitol at 4° C., responsive genotypes

OC[C@@H](O)[C@@H](O)[C@H](O)[C@H](O)CO [mannitol]
% embryoid Regeneration [1, 3]: 89%
Embryoids [1, 3]: 14133
% embryoid Regeneration [1, 4]: 84%
Embryoids [1, 4]: 7667
Embryoids ([1]; GBC 782, pretreatment 3 d 0.3M man. 4° C.): 14496
Embryoids ([1]; GBC 783, pretreatment 3 d 0.3M man. 4° C.): 11360
% embryoid Regeneration [1, 5]: 36%
Embryoids [1, 5]: 5533
% embryoid Regeneration [1, 6]: 97%
Embryoids [1, 6]: 12380
% embryoid Regeneration [1, 7]: 88%
Embryoids [1, 7]: 13504
frequency of fertile doubled haploids among the Lina progeny ([1]; Lina, combination of cold plus mannitol for 7 days): 79%
% embryoid Regeneration [1, 8]: 81%
Embryoids [1, 8]: 8921
% embryoid Regeneration [1, 9]: 74%
Embryoids [1, 9]: 11360
% embryoid Regeneration [1, 10]: 58%
Embryoids [1, 10]: 10810
plants per 10^5 microspores [1, 11]: about 2,000 plants per 10^5 microspores
plants per spike [1, 11]: about 200 plants per spike
# Embryos formed ([2]; 4 d pretreatment of spikes at 4° C. in 0.3 mol/liter mannitol): 9579
# Embryos formed ([2]; 7 d pretreatment of spikes at 4° C. in 0.3 mol/liter mannitol): 9693
# Embryos formed ([2]; 14 d pretreatment of spikes at 4° C. in 0.3 mol/liter mannitol): 8981
# Embryos formed ([2]; 21 d pretreatment of spikes at 4° C. in 0.3 mol/liter mannitol): 9692
# Embryos formed ([2]; 28 d pretreatment of spikes at 4° C. in 0.3 mol/liter mannitol): 10213
